Experimental data taken from PubChem BioAssay (NCI).
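Grown in 96-well plates, cells were treated for 48 hours with each compound at five concentrations. Insufficient inhibition: endpoint recorded as highest concentration tested. GI50 is the concentration that inhibits growth by half. TGI: concentration producing complete growth inhibition.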

How the values were obtained:
Assay in all cases: NCI tumour cell line growth inhibition, 48 h
NCI-H23 lung = tested on: NCI-H23 lung
NCI-H460 lung = tested on: NCI-H460 lung
NCI-H522 lung = tested on: NCI-H522 lung
NCI/ADR-RES ovarian = tested on: NCI/ADR-RES ovarian
OVCAR-3 ovarian = tested on: OVCAR-3 ovarian
OVCAR-4 ovarian = tested on: OVCAR-4 ovarian
OVCAR-5 ovarian = tested on: OVCAR-5 ovarian
OVCAR-8 ovarian = tested on: OVCAR-8 ovarian
PC-3 prostate = tested on: PC-3 prostate
RPMI-8226 leukemia = tested on: RPMI-8226 leukemia
RXF 393 renal = tested on: RXF 393 renal
SF-268 CNS = tested on: SF-268 CNS
SF-295 CNS = tested on: SF-295 CNS
SF-539 CNS = tested on: SF-539 CNS
SK-MEL-2 melanoma = tested on: SK-MEL-2 melanoma
SK-MEL-28 melanoma = tested on: SK-MEL-28 melanoma
SK-MEL-5 melanoma = tested on: SK-MEL-5 melanoma
SK-OV-3 ovarian = tested on: SK-OV-3 ovarian
SN12C renal = tested on: SN12C renal
SNB-19 CNS = tested on: SNB-19 CNS
SNB-75 CNS = tested on: SNB-75 CNS
SR leukemia = tested on: SR leukemia
SW-620 colon = tested on: SW-620 colon
T-47D breast = tested on: T-47D breast
TK-10 renal = tested on: TK-10 renal
U251 CNS = tested on: U251 CNS
UACC-257 melanoma = tested on: UACC-257 melanoma
UACC-62 melanoma = tested on: UACC-62 melanoma
UO-31 renal = tested on: UO-31 renal

For `COc1ccc(C(=O)c2cc(OC)c(OC)c(OC)c2)cc1OC(=O)C(Cl)(Cl)Cl`, the TGI (NCI-H23 lung) was > 100000 nM, the GI50 (NCI-H460 lung) was 38.8 nM and the TGI (NCI-H460 lung) was > 100000 nM. The GI50 (NCI-H522 lung) was 16.9 nM, the TGI (NCI-H522 lung) was > 100000 nM and the GI50 (NCI/ADR-RES ovarian) was < 11 nM. For the same molecule, the TGI (NCI/ADR-RES ovarian) was > 100000 nM, the GI50 (OVCAR-3 ovarian) was 27.8 nM and the TGI (OVCAR-3 ovarian) was > 100000 nM. For the same molecule, the GI50 (OVCAR-4 ovarian) was 122 nM, the TGI (OVCAR-4 ovarian) was > 100000 nM and the GI50 (OVCAR-5 ovarian) was 4490 nM. The TGI (OVCAR-5 ovarian) was > 100000 nM, the GI50 (OVCAR-8 ovarian) was 44.1 nM and the TGI (OVCAR-8 ovarian) was > 100000 nM. For the same molecule, the GI50 (PC-3 prostate) was < 10.6 nM, the TGI (PC-3 prostate) was > 100000 nM and the GI50 (RPMI-8226 leukemia) was < 20.2 nM. For the same molecule, the TGI (RPMI-8226 leukemia) was 27200 nM, the GI50 (RXF 393 renal) was 33.7 nM and the TGI (RXF 393 renal) was > 100000 nM. The GI50 (SF-268 CNS) was 73.6 nM, the TGI (SF-268 CNS) was > 100000 nM and the GI50 (SF-295 CNS) was 79.2 nM. For the same molecule, the TGI (SF-295 CNS) was > 100000 nM, the GI50 (SF-539 CNS) was 13.4 nM and the TGI (SF-539 CNS) was 56 nM. For the same molecule, the GI50 (SK-MEL-2 melanoma) was 85300 nM, the TGI (SK-MEL-2 melanoma) was > 100000 nM and the GI50 (SK-MEL-28 melanoma) was 25100 nM. The TGI (SK-MEL-28 melanoma) was > 100000 nM, the GI50 (SK-MEL-5 melanoma) was 32.5 nM and the TGI (SK-MEL-5 melanoma) was 329 nM. The GI50 (SK-OV-3 ovarian) was 76.2 nM, the TGI (SK-OV-3 ovarian) was > 100000 nM and the GI50 (SN12C renal) was 57.9 nM. The TGI (SN12C renal) was > 100000 nM, the GI50 (SNB-19 CNS) was 45.2 nM and the TGI (SNB-19 CNS) was > 100000 nM. For the same molecule, the GI50 (SNB-75 CNS) was < 10 nM, the TGI (SNB-75 CNS) was > 100000 nM and the GI50 (SR leukemia) was < 10 nM. For the same molecule, the TGI (SR leukemia) was > 100000 nM, the GI50 (SW-620 colon) was < 10 nM and the TGI (SW-620 colon) was > 100000 nM. For the same molecule, the GI50 (T-47D breast) was 2400 nM, the TGI (T-47D breast) was > 100000 nM and the GI50 (TK-10 renal) was 34100 nM. For the same molecule, the TGI (TK-10 renal) was > 100000 nM, the GI50 (U251 CNS) was 38.4 nM and the TGI (U251 CNS) was > 100000 nM. For the same molecule, the GI50 (UACC-257 melanoma) was > 100000 nM, the TGI (UACC-257 melanoma) was > 100000 nM and the GI50 (UACC-62 melanoma) was 628 nM. For the same molecule, the TGI (UACC-62 melanoma) was > 100000 nM, the GI50 (UO-31 renal) was 540 nM and the TGI (UO-31 renal) was > 100000 nM.
